From ChEMBL document CHEMBL1148949, “(2S,3R)-2-aminododecan-3-ol, a new antifungal agent from the ascidian Clavelina oblonga” (2004)
In brackets after ≈: the same amount, converted by molar mass.

What was measured:
[1] = tested on: Candida albicans; assay: Antifungal activity against Candida albicans ATCC 10231; format: functional
[2] = tested on: Nakaseomyces glabratus; assay: Antifungal activity against Candida glabrata; format: functional

Compound: NYSTATIN
- MIC [1]: 1 µg/mL

Compound: CC(=O)N1CCN(c2ccc(OCC3COC(Cn4ccnc4)(c4ccc(Cl)cc4Cl)O3)cc2)CC1 (centres undefined) [KETOCONAZOLE]
- MIC [1]: 0.01 µg/mL (≈ 0.0188 µM)

Compound: CCCCCCCCC[C@@H](O)[C@H](C)N
- MIC [2]: 30 µg/mL (≈ 149 µM)
- MIC [1]: 0.7 µg/mL (≈ 3.48 µM)
